# Test results from ChEMBL document CHEMBL1142439 (Bioorg Med Chem, 2008).
# pEC50: −log10 of the molar value. The source made the active and inactive calls. The calls are words filed in the database; no cut-off is given here.
# Key:
# [1] = tested on: Rattus norvegicus; test: Induction of penile grooming in Wistar rat at 10 nmol/kg, sc; format: functional, organism-based
# [2] = molecular target: D(2) dopamine receptor (Homo sapiens, UniProt P14416); test: Agonist activity at human dopamine D2 receptor expressed in CHO cells assessed as inhibition of forskolin-stimulated cAMP production; format: functional, cell-based
# [3] = tested on: Rattus norvegicus; test: Decrease in dopamine release in Wistar rat striatal at 100 nmol/kg, po after 45 mins; format: functional; design: scale not given: the % may be the effect or the level left
# [4] = tested on: Rattus norvegicus; test: Decrease in dopamine release in Wistar rat striatal at 10 nmol/kg, sc after 90 mins; format: functional; design: scale not given: the % may be the effect or the level left
# [5] = tested on: Rattus norvegicus; test: Induction of locomotor activity in Wistar rat at 10 nmol/kg, sc; format: functional, organism-based
# [6] = tested on: Rattus norvegicus; test: Induction of sniffing in Wistar rat at 10 nmol/kg, sc; format: functional, organism-based
# [7] = tested on: Rattus norvegicus; test: Decrease in dopamine release in Wistar rat striatal at 1 nmol/kg, sc after 6 hrs; format: functional; design: scale not given: the % may be the effect or the level left
# [8] = tested on: Rattus norvegicus; test: Induction of rearing grooming in Wistar rat at 10 nmol/kg, sc; format: functional, organism-based
# [9] = molecular target: D(1A) dopamine receptor (Homo sapiens, UniProt P21728); test: Agonist activity at human recombinant dopamine D1 receptor expressed in CHO cells assessed as stimulation of cAMP production; format: functional, cell-based
# [10] = tested on: Rattus norvegicus; test: Induction of yawning in Wistar rat at 10 nmol/kg, sc; format: functional, organism-based
# [11] = tested on: Rattus norvegicus; test: Decrease in dopamine release in Wistar rat striatal at 1 nmol/kg, sc after 90 mins; format: functional; design: scale not given: the % may be the effect or the level left
# D(1A) dopamine receptor, sequence (P21728 whole entry): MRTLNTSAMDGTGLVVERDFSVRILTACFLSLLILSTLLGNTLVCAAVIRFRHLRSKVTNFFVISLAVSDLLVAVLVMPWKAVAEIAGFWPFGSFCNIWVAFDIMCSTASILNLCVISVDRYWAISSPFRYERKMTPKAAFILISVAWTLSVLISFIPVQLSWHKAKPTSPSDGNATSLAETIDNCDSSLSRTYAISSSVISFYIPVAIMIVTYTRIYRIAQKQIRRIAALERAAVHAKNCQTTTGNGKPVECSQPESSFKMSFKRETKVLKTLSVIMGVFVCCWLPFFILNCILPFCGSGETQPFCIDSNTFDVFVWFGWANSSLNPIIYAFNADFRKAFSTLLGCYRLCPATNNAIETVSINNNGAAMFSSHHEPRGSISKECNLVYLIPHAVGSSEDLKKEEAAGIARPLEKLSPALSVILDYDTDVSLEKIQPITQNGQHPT
# D(2) dopamine receptor, sequence (P14416 whole entry): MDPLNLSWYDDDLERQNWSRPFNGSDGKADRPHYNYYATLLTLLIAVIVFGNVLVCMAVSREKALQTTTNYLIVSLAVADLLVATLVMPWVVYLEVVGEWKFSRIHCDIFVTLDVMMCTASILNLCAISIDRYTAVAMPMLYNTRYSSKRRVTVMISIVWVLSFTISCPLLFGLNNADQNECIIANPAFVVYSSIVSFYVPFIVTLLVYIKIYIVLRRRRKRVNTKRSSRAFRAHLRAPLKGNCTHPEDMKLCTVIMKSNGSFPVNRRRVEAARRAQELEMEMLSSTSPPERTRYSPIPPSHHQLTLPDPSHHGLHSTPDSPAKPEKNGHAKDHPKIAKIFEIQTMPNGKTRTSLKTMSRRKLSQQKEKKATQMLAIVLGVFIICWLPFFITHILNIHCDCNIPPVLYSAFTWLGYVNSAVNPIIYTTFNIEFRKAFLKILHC
compound,measurement,setting,value
CCCN1CCC[C@@H]2Cc3c(ccc(O)c3O)C[C@H]21,Activity,[1],Active
same,pEC50,[2],9.19
same,Activity,[3],40%
same,Activity,[4],30%
same,Activity,[5],Active
same,Activity,[6],Active
same,Activity,[7],30%
same,Activity,[8],Active
same,pEC50,[9],7.60
same,Activity,[10],Active
same,Activity,[11],20%
